Activity calls are given as the source filed them.
Tests used:
[1] = target: FAD-linked sulfhydryl oxidase ALR (Homo sapiens, UniProt P55789); assay: inhibitors of human ALR sulfhydryl oxidase, dose response, biochemical, H2O2 detection, luminescence, cherry-pick (AID 493248)
[2] = test system: H4; assay: Luminescence Cell-Based Dose Response HTS to Identify Activators of 5'UTR Stem-Loop Driven Prion Protein mRNA Translation in H4 Neuroglioblastoma Cells. [Related pubchem assays: 1829 (Project Summary), 1814 (Primary HTS)]; type: functional; details: Homo sapiens
[3] = target: T1, Streptokinase A (Streptococcus pyogenes serotype M1, UniProt P10520); assay: S. pyogenes streptokinase expression inhibitors, potency, dose response, plasminogen activation absorbance, OD405 (AID 1914); type: functional, Streptococcus pyogenes M1 GAS;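 also: secreted streptokinase activity via plasminogen activation per viability signal from cell pellet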
T1 sequence (P10520 whole entry): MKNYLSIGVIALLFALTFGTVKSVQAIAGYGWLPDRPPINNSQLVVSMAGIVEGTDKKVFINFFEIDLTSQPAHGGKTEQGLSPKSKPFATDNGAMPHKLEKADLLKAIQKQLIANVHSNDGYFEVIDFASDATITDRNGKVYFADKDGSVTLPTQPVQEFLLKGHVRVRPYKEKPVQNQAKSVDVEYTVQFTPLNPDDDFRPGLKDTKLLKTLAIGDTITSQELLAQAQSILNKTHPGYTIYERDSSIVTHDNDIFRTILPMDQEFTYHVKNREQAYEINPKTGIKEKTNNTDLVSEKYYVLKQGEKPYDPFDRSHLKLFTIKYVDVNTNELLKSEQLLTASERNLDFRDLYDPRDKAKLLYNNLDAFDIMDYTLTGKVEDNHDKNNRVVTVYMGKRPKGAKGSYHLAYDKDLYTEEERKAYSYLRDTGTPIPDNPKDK

[4] = Luminescence Cell-Based Dose Confirmation HTS to Identify Activators of 5'UTR Stem-Loop Driven Alpha-Synuclein mRNA Translation in H4 Neuroglioblastoma Cells. [Related pubchem assays: 1829 (Project Summary), 1814 (Primary HTS)]; type: functional
[5] = test system: Streptococcus; assay: Group A Streptococcus viability loss, dose response, counter-screen for streptokinase expression inhibitor project, luminescence, BacTiterGlo (AID 1915); type: functional, organism-based;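 also: potency for reduction of bacterial viability or growth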
[6] = Luminescence Cell-Based Dose Response HTS to Identify Activators of Luciferase Translation or Activity in H4 […] Cells. [Related pubchem assays: 1829 (Project Summary), 1814 (Primary HTS)]; type: functional
[7] = test system: Streptococcus sp. 'group A'; assay: growth inhibition of control SK(-) GAS strain, dose response, counter-screen for streptokinase expression inhibitor project, luminescence, kanamycin, BacTiterGlo, confirmation (AID 1900); type: functional, organism-based
[8] = target: T2, Replicative DNA helicase DnaB (Mycobacterium tuberculosis, UniProt P9WMR3); assay: DnaB intein splicing inhibitors, dose response, biochemical, cell-free fluorescence (AID 449749); type: functional
T2 sequence (P9WMR3 whole entry): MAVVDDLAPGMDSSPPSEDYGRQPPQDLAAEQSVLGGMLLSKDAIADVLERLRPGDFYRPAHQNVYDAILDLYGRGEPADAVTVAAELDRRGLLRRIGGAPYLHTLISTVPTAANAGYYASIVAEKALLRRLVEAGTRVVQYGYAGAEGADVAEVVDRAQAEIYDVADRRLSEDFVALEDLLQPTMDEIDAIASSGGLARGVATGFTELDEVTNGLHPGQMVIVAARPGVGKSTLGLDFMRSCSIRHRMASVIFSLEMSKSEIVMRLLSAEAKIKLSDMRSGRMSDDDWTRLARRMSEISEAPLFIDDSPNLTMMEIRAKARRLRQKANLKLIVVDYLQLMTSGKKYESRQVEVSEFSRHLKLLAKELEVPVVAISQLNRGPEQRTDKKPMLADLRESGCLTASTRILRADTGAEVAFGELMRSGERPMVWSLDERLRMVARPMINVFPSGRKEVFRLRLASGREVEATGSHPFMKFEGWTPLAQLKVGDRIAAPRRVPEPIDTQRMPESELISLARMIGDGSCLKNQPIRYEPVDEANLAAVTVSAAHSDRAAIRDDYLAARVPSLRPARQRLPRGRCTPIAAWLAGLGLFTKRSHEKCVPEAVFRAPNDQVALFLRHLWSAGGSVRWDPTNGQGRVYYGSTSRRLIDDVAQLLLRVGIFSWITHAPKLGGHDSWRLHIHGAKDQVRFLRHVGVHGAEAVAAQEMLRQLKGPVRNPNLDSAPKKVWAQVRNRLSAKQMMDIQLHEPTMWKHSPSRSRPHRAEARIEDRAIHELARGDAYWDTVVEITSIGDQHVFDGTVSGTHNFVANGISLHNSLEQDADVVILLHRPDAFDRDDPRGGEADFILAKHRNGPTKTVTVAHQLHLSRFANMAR

[9] = target: T3, Protein RecA (Mycobacterium tuberculosis, UniProt P9WHJ3); assay: Fluorescence Cell-Free Homogeneous Dose Retest to Identify Inhibitors of RecA-Intein Splicing Activity. [Related pubchem assays (depositor defined):AID2097, AID2223, AID489010, AID492950]; type: functional
T3 sequence (P9WHJ3 whole entry): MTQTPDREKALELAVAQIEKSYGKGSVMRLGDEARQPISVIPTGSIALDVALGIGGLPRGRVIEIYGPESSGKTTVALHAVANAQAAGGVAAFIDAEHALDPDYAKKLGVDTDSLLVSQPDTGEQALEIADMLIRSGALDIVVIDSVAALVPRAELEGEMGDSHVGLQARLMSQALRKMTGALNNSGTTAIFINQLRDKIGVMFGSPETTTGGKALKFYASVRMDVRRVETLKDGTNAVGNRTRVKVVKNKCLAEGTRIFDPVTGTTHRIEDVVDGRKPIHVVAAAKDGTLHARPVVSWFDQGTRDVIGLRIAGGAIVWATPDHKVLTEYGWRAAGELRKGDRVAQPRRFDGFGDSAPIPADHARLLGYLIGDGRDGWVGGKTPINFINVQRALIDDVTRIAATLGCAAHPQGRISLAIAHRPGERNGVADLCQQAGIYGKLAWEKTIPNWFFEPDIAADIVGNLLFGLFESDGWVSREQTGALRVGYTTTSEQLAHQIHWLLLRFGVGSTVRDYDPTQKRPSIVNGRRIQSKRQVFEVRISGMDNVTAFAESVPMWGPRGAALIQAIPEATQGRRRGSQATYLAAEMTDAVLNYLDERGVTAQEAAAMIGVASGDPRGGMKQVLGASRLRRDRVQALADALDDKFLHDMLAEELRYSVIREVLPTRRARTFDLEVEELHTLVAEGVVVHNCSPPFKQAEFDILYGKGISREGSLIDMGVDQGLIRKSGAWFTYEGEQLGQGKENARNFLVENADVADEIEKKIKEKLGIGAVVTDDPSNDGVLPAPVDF

[10] = target: Cytochrome P450 2C19 (Homo sapiens, UniProt P33261); assay: Cytochrome panel assay with activity outcomes. Panel member name: p450-cyp2c19 Compounds with AC50 equal or less than 10 uM are considered active; type: functional; details: read-out: AC50
Chain of Cytochrome P450 2C19 (P33261 whole entry): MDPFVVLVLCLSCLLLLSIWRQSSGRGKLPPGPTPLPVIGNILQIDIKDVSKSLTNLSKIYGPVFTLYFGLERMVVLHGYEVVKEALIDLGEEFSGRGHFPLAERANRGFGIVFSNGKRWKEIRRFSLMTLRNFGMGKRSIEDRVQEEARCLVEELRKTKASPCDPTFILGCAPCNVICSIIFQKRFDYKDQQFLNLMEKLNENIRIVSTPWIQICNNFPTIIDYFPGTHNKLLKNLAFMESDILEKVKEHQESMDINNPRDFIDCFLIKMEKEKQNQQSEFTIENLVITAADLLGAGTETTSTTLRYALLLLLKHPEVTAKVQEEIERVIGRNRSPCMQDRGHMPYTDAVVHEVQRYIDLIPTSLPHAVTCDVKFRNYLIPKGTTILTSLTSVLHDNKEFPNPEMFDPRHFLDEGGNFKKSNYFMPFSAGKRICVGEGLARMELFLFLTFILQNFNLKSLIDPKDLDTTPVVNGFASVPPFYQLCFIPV

[11] = target: T4, Cytochrome P450 1A2 (Homo sapiens, UniProt P05177);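 also: PubChem cytochrome P450 panel assay, CYP1A2 panel member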
T4 sequence (P05177 whole entry): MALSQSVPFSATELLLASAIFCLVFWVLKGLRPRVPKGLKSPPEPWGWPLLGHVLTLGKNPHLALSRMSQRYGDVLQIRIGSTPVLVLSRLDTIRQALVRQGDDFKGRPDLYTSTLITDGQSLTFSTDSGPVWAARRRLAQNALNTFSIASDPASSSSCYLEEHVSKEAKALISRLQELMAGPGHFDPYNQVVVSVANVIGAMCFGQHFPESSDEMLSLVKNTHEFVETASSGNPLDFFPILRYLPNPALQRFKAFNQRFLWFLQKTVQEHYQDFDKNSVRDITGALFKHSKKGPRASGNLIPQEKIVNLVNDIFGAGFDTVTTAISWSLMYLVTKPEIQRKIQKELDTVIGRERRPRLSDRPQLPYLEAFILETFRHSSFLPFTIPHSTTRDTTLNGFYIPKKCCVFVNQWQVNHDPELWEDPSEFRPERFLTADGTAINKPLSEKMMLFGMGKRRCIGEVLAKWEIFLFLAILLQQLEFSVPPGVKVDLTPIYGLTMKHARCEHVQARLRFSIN

[12] = target: T5, Heat shock factor protein 1 (Mus musculus, UniProt P38532); assay: HSF1 potentiators in luciferase reporter cells, confirmation, cell-based, NIH3T3, luminescence, dose retest (AID 435004); type: functional;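 also: stress induced by proteasome inhibitor MG132 added 30 min after compound; luciferase reporter driven by HSF1 response element in NIH3T3 cells; actives raise luminescence as potentiators of the MG132 stress response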
T5 sequence (P38532 whole entry): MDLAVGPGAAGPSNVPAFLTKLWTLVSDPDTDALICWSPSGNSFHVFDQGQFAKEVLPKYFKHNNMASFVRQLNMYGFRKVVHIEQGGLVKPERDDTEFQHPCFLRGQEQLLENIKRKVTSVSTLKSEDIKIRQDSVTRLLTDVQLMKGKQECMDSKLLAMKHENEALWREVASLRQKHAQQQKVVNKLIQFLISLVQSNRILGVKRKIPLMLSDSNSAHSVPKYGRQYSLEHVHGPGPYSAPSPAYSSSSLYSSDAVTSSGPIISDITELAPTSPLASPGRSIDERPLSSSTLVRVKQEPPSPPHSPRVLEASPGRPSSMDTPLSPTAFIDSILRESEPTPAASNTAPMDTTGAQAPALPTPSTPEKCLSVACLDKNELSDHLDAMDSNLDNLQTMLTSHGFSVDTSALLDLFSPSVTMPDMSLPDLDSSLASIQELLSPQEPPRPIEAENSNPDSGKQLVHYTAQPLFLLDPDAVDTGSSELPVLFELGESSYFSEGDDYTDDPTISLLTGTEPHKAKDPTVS

[13] = target: T6, Rac GTPase-activating protein 1 (Homo sapiens, UniProt Q9H0H5); assay: MgcRacGAP GTPase-activating activity inhibitors, confirmation, biochemical, ADP Hunter fluorescence, primary and confirmatory (AID 624330); type: functional
T6 sequence (Q9H0H5 whole entry): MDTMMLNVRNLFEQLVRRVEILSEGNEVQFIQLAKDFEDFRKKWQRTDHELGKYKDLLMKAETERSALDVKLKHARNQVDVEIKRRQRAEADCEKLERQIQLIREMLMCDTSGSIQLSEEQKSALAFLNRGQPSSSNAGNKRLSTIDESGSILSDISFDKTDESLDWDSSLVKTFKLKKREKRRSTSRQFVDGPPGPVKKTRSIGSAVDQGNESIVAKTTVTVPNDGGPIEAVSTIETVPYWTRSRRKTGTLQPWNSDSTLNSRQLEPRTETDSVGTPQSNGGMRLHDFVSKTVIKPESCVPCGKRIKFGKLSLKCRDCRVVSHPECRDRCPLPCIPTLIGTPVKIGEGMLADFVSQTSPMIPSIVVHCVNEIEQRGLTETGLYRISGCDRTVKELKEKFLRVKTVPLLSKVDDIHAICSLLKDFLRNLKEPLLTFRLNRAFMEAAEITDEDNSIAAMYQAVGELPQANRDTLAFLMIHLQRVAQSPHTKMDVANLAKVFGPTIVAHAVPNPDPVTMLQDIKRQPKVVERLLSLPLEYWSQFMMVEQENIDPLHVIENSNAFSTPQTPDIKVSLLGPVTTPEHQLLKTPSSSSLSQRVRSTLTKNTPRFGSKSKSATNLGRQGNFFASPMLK

Chain of FAD-linked sulfhydryl oxidase ALR (P55789 whole entry): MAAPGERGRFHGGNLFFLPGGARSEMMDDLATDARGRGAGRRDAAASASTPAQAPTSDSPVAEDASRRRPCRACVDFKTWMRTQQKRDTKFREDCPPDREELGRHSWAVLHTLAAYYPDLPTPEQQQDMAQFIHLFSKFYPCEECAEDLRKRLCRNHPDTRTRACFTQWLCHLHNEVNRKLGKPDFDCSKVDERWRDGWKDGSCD

Structure (SMILES): O=C(NCC(=O)N1CCN(c2ccccc2O)CC1)c1ccco1
- AC50 [1]: 2.22 µM (active)

Structure (SMILES): c1ccc(-c2onc(-c3ccco3)c2-c2ccc3[nH]ccc3c2)cc1
- EC50 [2]: 23.7 µM (active)
- EC50 [3]: 4.99 µM (active)
- EC50 [4]: 14.3 µM (active)
- EC50 [5]: 26.4 µM (active)
- EC50 [6]: 63.1 µM (active)
- EC50 [7]: 3.19 µM (active)

Structure (SMILES): CCc1ccc(NC(=O)CSc2ccc(-c3sc(C)nc3C)nn2)cc1
- AC50 [8]: 278 µM (active)
- EC50 [9]: > 380 µM (inactive)

Structure (SMILES): CC(C)(C)OC(=O)NCc1nnc(S)n1C1CC1
- AC50 [1]: 5.46 µM (active)

Structure (SMILES): O=C(c1cccc(C(F)(F)F)c1)C1CCCN(C(=O)c2cc(C3CC3)[nH]n2)C1 (stereo not drawn)
- AC50 [1]: 0.392 µM (active)

Structure (SMILES): Cc1ccc(C)c(NC(=O)NNS(=O)(=O)c2ccc(C)c(C)c2)c1
- AC50 [1]: 3.8 µM (active)

Structure (SMILES): CCOc1cc(/C=C2\C(=N)N3N=C(N4CCCCC4)SC3=NC2=O)ccc1OC(=O)c1ccco1
- AC50 [8]: > 380 µM (inactive)
- EC50 [9]: 18.6 µM (active)

Structure (SMILES): Cc1c(C(=O)O)c2cc(O)ccc2n1-c1ccccc1
- AC50 [1]: 5.18 µM (active)

Structure (SMILES): CN1CCN2c3ccc(N)cc3CC3(C(=O)NC(=O)NC3=O)C2C1 (stereo not drawn)
- AC50 [8]: 147 µM (active)
- EC50 [9]: 39.5 µM (active)

Structure (SMILES): CCc1ccc(CN(C(=O)c2cc3ccccc3oc2=O)C2CCS(=O)(=O)C2)cc1 (stereo not drawn)
- EC50 [2]: 0.547 µM (active)
- AC50 [10]: 20 µM (inconclusive)
- EC50 [4]: 27.7 µM (active)
- AC50 [11]: 28.2 µM (inconclusive)
- EC50 [6]: 28.6 µM (active)

Structure (SMILES): [O-]c1c[n+](-c2ccc(-[n+]3cc([O-])on3)cc2)no1
- AC50 [1]: 4.1 µM (active)

Structure (SMILES): Cc1ccc2occ(C3N[C@H](C(=O)O)CS3)c(=O)c2c1 (stereo partly drawn)
- AC50 [1]: 0.392 µM (active)

Structure (SMILES): CCN(CC)c1ccc(NS(=O)(=O)c2ccc(-c3ccc(O)nn3)o2)c(C)c1
- AC50 [1]: 0.382 µM (active)

Structure (SMILES): CCC1(C(=O)O)NC(c2cc(OC)ccc2O)C2C(=O)N(Cc3ccccc3)C(=O)C21 (stereo not drawn)
- AC50 [1]: 7.15 µM (active)

Structure (SMILES): Cc1ccc(-c2c3c(=O)n(C)c(=O)n(C)c3cn2-n2cnnc2)cc1
- EC50 [12]: 13.5 µM (active)
- AC50 [1]: 9.89 µM (active)

Structure (SMILES): Oc1ccccc1/C=N/Nc1ccccc1
- AC50 [1]: 7.86 µM (active)

Structure (SMILES): CCN(CC)C(=N)/C(C#N)=N/Nc1ccc(C)cc1
- AC50 [1]: 0.035 µM (active)

Structure (SMILES): Cn1cccc1/C=N/N1CCN(c2ccccc2)CC1
- AC50 [1]: 85.3 µM (active)
- IC50 [13]: 84.2 µM (active)

Structure (SMILES): CCCn1c2ccc(/C(C)=N\O)cc2c2cc(/C(C)=N/O)ccc21
- AC50 [1]: 0.028 µM (active)
